Measured values as given in US20230217926A1, “SELECTIVE HERBICIDES BASED ON SUBSTITUTED ISOXAZOLIN CARBOXAMIDES AND ISOXADIFEN-ETHYL” (BAYER AKTIENGESELLSCHAFT, priority 2020, published 2023).

Experiments:
ZEAMA Sileno [1] = assay: Tank-mix post-emergence crop damage, greenhouse, visual assessment; format: in vivo, maize; design: key to Reduction [Difference]: % points: herbicide damage without safener − damage with safener
HORVS Montoya [2] = assay: as above; format: in vivo, spring barley; conditions: 10 DAT
Procedure: (§1) Seeds of crops (spring wheat, TRZAS; spring barley, HORVS; maize, ZEAMA) were placed in sandy loam soil in peat pots, covered with soil and cultivated in a greenhouse under good growth conditions. Two to three weeks after sowing, the test plants were treated at the 1 to 3-leaf stage. The herbicide/safener active compound combinations according to the invention, formulated as wettable powders or emulsion concentrates, and, in parallel tests, the correspondingly formulated individual active compounds were sprayed onto the green parts of the plants in various dosages using an amount of water of 300 l/ha (converted).
(§2) The pots were returned under good growing conditions in a glasshouse and a visual assessment of herbicidal effects was made at intervals from 1 to 3 weeks after herbicide application (DAT=days after treatment). Assessment was on a percentage basis in comparison with untreated control plants (0%=no injury, 100%=complete kill).
(§3) Reduction[Difference]=herbicide damage without safener−herbicide damage with safener Reduction[%]=(Reduction[Difference]*100)/herbicide damage without safener
c) Plant Species, Variety: HORVS Montoya, Safener (SAF): Isoxadifen-Ethyl

TRZAS Triso [3] = assay: as above; format: in vivo, spring wheat; conditions: 21 DAT; for Reduction [%] / Reduction [Difference]: isoxadifen-ethyl 50 g a.i./ha; for HER effect: no safener
Procedure: as §1, §2, §3
5d) Plant Species, Variety: TRZAS Triso, Safener (SAF): Isoxadifen-Ethyl

TRZAS Triso [4] = assay: Safener seed treatment, pre-emergence herbicide, crop damage; format: in vivo, spring wheat; design: key to Reduction [Difference]: % crop damage without safener minus % damage with safener; conditions: HER 5 g a.i./ha pre-emergence; for Reduction [%] / Reduction [Difference]: isoxadifen-ethyl 0.25 g a.i./kg seed; for HER effect + SAF: isoxadifen-ethyl seed treatment 0.25 g a.i./kg seed; for HER effect: no safener
Procedure: (§4) For the safener seed treatment, sufficient seeds of the respective crops (spring wheat, TRZAS; spring barley, HORVS; maize, ZEAMA) were weighed into screw top glass bottles approximately twice the volume of the seeds.
(§5) The specified safeners, formulated as wettable powder (WP) were weighed out so that the specified rates (g a.i./kg seed) would be obtained, dissolved in water (1 ml water per 10 g of seeds), and added to the seeds to produce a slurry.
(§6) The bottles were capped and then placed in an overhead shaker (set at medium speed for ca. 60 minutes) so that the seeds were evenly coated with the slurry. The bottles were uncapped and the seeds were either placed on paper and dried for an interval of 3-4 hours prior to sowing, or directly sown. Seeds were placed in sandy loam soil in pots of a diameter of 7-8 cm, and covered with soil.
(§7) Pre-emergence application of the specified herbicides was done subsequently, on two sets of plants: a) seed treatment with safener, as described above
(§8) The herbicides were formulated as WP and was sprayed onto the soil surface as an aqueous suspension at an equivalent water application rate of 300 l/ha.
(§9) After application, the test plants were kept in the greenhouse under good growth conditions. At intervals up to 4 weeks after application (=28 days after treatment; DAT), % crop damage observed on the treated plants was scored visually in comparison to control plants that had not received any safener or herbicide treatment.
(§10) Values in the table below are mean values of at least 2 replicates.
Reduction[Difference]=herbicide damage without safener−herbicide damage with safener Reduction[%]=(Reduction[Difference]*100)/herbicide damage without safener a) Plant Species, Variety: TRZAS Triso, Safener (SAF): Isoxadifen-Ethyl

HORVS Montoya [5] = assay: as above; format: in vivo, spring barley; design: key to Reduction [Difference]: % crop damage without safener minus % damage with safener; conditions: HER 15 g a.i./ha pre-emergence, 11 DAT (Interim)
Procedure: as §4, §5, §6, §7, §8, §9, §10
Reduction[Difference]=herbicide damage without safener−herbicide damage with safener Reduction[%]=(Reduction[Difference]*100)/herbicide damage without safener b) Plant Species, Variety: HORVS Montoya, Safener (SAF): Isoxadifen-Ethyl

ZEAMA Sileno [6] = assay: as above; format: in vivo, maize; design: key to Reduction [Difference]: % crop damage without safener minus % damage with safener; conditions: HER 40 g a.i./ha pre-emergence, 14 DAT
[7] = HER 2 g a.i./ha, isoxadifen-ethyl 50 g a.i./ha, Final
[8] = HER 0.25 g a.i./ha + isoxadifen-ethyl 50 g a.i./ha
[9] = HER 0.25 g a.i./ha, isoxadifen-ethyl 50 g a.i./ha
[10] = isoxadifen-ethyl 0.25 g a.i./kg seed
[11] = isoxadifen-ethyl seed treatment 0.25 g a.i./kg seed

## C=CC1(C(=O)NC2COC(C(=O)OC)C2)CC(c2cc(F)cc(F)c2)=NO1 (mixture of isomers) [Example 1.68]
ZEAMA Sileno [1]; HER 2 g a.i./ha + isoxadifen-ethyl 50 g a.i./ha, Final
  HER effect + SAF: 25%
ZEAMA Sileno [1]; [7]
  Reduction [%]: 58%
  Reduction [Difference]: 35
ZEAMA Sileno [1]; HER 2 g a.i./ha, no safener, Final assessment, 0%=no injury, 100%=complete kill
  HER effect: 60%
HORVS Montoya [2]; [8]
  HER effect + SAF: 0%
HORVS Montoya [2]; [9]
  Reduction [%]: 100%
  Reduction [Difference]: 20
HORVS Montoya [2]; HER 0.25 g a.i./ha, no safener
  HER effect: 20%
TRZAS Triso [3]; [8]
  HER effect + SAF: 20%
TRZAS Triso [3]; HER 0.25 g a.i./ha
  Reduction [%]: 50%
  Reduction [Difference]: 20
  HER effect: 40%
TRZAS Triso [3]; HER 1 g a.i./ha + isoxadifen-ethyl 50 g a.i./ha
  HER effect + SAF: 70%
TRZAS Triso [3]; HER 1 g a.i./ha
  Reduction [%]: 25%
  Reduction [Difference]: 23
  HER effect: 93%
TRZAS Triso [4]; 11 DAT (Interim)
  Reduction [%]: 44%
  Reduction [Difference]: 20
  HER effect + SAF: 25%
  HER effect: 45%
TRZAS Triso [4]; 21 DAT (Final)
  Reduction [%]: 56%
  Reduction [Difference]: 25
  HER effect + SAF: 20%
  HER effect: 45%
HORVS Montoya [5]; [10]
  Reduction [%]: 31%
  Reduction [Difference]: 20
HORVS Montoya [5]; [11]
  HER effect + SAF: 45%
HORVS Montoya [5]; no safener
  HER effect: 65%
ZEAMA Sileno [6]; [10]
  Reduction [%]: 25%
  Reduction [Difference]: 23
ZEAMA Sileno [6]; [11]
  HER effect + SAF: 70%
ZEAMA Sileno [6]; no safener
  HER effect: 93%
